Measurements taken from PubChem BioAssay (NCI).
Several values for one entry are separate records, joined by “and”; a condition that tells them apart may be missing. Equal entries are not always repeated.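 How tested: cells in 96-well plates exposed to compound for 48 hours at five concentrations. GI50 = concentration required for 50% inhibition of growth. The concentration for full growth arrest is given as TGI.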 *1 amine or outer side, *2 acyl side, *3 side chain or, on linkers, in order; H or OH if unused. Where a SMILES comes first, the peptide text is derived from it. Bridges are numbered along the chain shown (N, C = ends). Roman numbers before positions name the chains, in order. [ ]: non-standard residue; d: D form. Actinocin(9to1) = Cc1c2oc3c(C)ccc(C(=O)[*:1])c3nc-2c(C(=O)[*:2])c(N)c1=O; NMeF = CN[CH](Cc1ccccc1)C(=O)O; Sar = CNCC(=O)O

Legend:
Assay in all cases: DTP human tumour cell line panel, 48 h
[1] = system: CAKI-1 renal
[2] = system: T-47D breast
[3] = system: ACHN renal
[4] = system: SK-MEL-2 melanoma
[5] = system: SK-OV-3 ovarian
[6] = system: RXF 393 renal
[7] = system: SK-MEL-28 melanoma
[8] = system: HL-60(TB) leukemia

Structure (SMILES): COC(=O)C(C)NC(=O)c1ccccc1I(OS(=O)(=O)C(F)(F)F)c1ccccc1 (centres undefined)
- GI50 [1]: > 42.8 µM
- TGI [1]: > 62.5 µM
- GI50 [2]: 36.3 µM
- TGI [2]: > 100 µM
- GI50 [3]: 19.2 µM
- TGI [3]: 36.4 µM
- GI50 [4]: 41.6 µM
- TGI [4]: > 100 µM
- GI50 [5]: 23.6 µM
- TGI [5]: 56.5 µM
- GI50 [6]: 17.7 µM
- TGI [6]: 41.6 µM
- GI50 [7]: 18.7 µM
- TGI [7]: 45.3 µM

Structure (SMILES): Cc1c(Cl)cccc1NC(=O)c1sc2nc3c(cc2c1N)CCCCC3
- GI50 [8]: 0.143 µM
- TGI [8]: 0.484 µM
- GI50 [2]: 0.22 µM
- TGI [2]: > 50 µM
- GI50 [3]: 0.449 µM
- TGI [3]: > 50 µM
- GI50 [4]: 0.255 µM
- TGI [4]: 25.2 µM
- GI50 [5]: 0.23 µM
- TGI [5]: 29.9 µM
- GI50 [6]: 0.217 µM
- TGI [6]: 5.57 µM
- GI50 [7]: 1.22 µM
- TGI [7]: > 50 µM

Structure (SMILES): Cc1c2oc3c(C)ccc(C(=O)NC4C(=O)NC(C(C)C)C(=O)N5CCCC5C(=O)N(C)CC(=O)N(C)C(Cc5ccccc5)C(=O)OC4C)c3nc-2c(C(=O)NC2C(=O)NC(C(C)C)C(=O)N3CCCC3C(=O)N(C)CC(=O)N(C)C(Cc3ccccc3)C(=O)OC2C)c(N)c1=O (centres undefined) (I: TVP[Sar][NMeF] / II: TVP[Sar][NMeF]; ester I:1-I:C, II:1-II:C; linker I:N-II:N via Actinocin(9to1); configuration not given here)
- GI50 [8]: 0.00285 µM
- TGI [8]: 0.0205 µM
- TGI [1]: 2.79 µM and > 0.223 µM
- TGI [2]: < 0.01 µM and 0.0419 µM
- TGI [3]: > 1 µM
- TGI [4]: < 0.01 µM and 0.0326 µM
- TGI [6]: < 0.01 µM and 0.0305 µM
- TGI [7]: 0.06 µM

Structure (SMILES): C=C1C(=O)O[C@H]2[C@H]1CC/C(COC(=O)NCc1ccc(Cn3c(=O)sn(-c4ccccc4)c3=O)cc1)=C\CC[C@@]1(C)O[C@@H]21
- GI50 [1]: 2.49 µM
- TGI [1]: 6.1 µM
- GI50 [2]: 1.98 µM
- TGI [2]: 4.66 µM
- GI50 [3]: 1.64 µM
- TGI [3]: 3.14 µM
- GI50 [4]: 2.39 µM
- TGI [4]: 6.34 µM
- GI50 [5]: 14.1 µM
- TGI [5]: 27.4 µM
- GI50 [6]: 1.75 µM
- TGI [6]: 3.4 µM
- GI50 [7]: 1.7 µM
- TGI [7]: 3.41 µM

Structure (SMILES): CC(=O)[O-].O=C([CH-]C(=O)c1ccccc1)c1ccccc1.O=C([CH-]C(=O)c1ccccc1)c1ccccc1.[Sm+3]
- GI50 [8]: 1.66 µM
- TGI [8]: 7.08 µM
- GI50 [1]: 3.57 µM
- TGI [1]: 15.9 µM
- GI50 [3]: 4.96 µM
- TGI [3]: 25.3 µM
- GI50 [4]: 2.03 µM
- TGI [4]: 6.93 µM
- GI50 [5]: 6.18 µM
- TGI [5]: 37.4 µM
- GI50 [7]: 5.87 µM
- TGI [7]: 37.8 µM

Structure (SMILES): N#CC1C=Cc2c(ccc3ccccc23)N1C(=O)c1ccccc1 (centres undefined)
- GI50 [8]: 0.171 µM
- GI50 [1]: 0.108 µM
- GI50 [2]: 0.103 µM
- TGI [2]: > 100 µM
- GI50 [3]: 0.352 µM
- TGI [3]: > 100 µM
- GI50 [4]: 4.61 µM
- TGI [4]: > 60.7 µM
- GI50 [5]: 0.311 µM
- TGI [5]: 29.7 µM
- GI50 [7]: 0.723 µM
- TGI [7]: > 100 µM

Structure (SMILES): CCCCCn1c(C)cc(/C=C\c2ccc3cc(C)ccc3[n+]2C)c1C
- GI50 [8]: 0.0296 µM
- TGI [8]: 0.128 µM
- GI50 [1]: 0.164 µM
- TGI [1]: 0.675 µM
- GI50 [2]: 0.0299 µM
- TGI [2]: 0.751 µM
- GI50 [3]: 0.239 µM
- TGI [3]: 1.15 µM
- GI50 [5]: 0.124 µM
- TGI [5]: 0.853 µM
- GI50 [7]: 0.339 µM
- TGI [7]: 1.71 µM

Structure (SMILES): O=C1OCC2=C1C(c1ccccc1)c1cc3c(cc1N2CCO)OCCO3 (centres undefined)
- GI50 [8]: 0.118 µM
- TGI [8]: 0.406 µM
- GI50 [1]: 0.293 µM
- TGI [1]: > 30.3 µM
- GI50 [2]: 0.22 µM
- TGI [2]: > 50 µM
- GI50 [3]: 0.493 µM
- TGI [3]: > 50 µM
- GI50 [4]: 0.156 µM
- TGI [4]: 0.432 µM
- GI50 [5]: 0.348 µM
- TGI [5]: 13.4 µM
- GI50 [7]: 8.24 µM
- TGI [7]: > 50 µM

Structure (SMILES): COc1cc(-c2csc(NC(=O)Nc3cc(Cl)cc(Cl)c3)n2)cc(OC)c1OC
- GI50 [8]: 3.65 µM
- TGI [8]: > 100 µM
- GI50 [2]: 1.67 µM
- TGI [2]: 3.74 µM
- GI50 [3]: 1.71 µM
- TGI [3]: 3.15 µM
- GI50 [4]: 2.61 µM
- TGI [4]: 7.97 µM
- GI50 [5]: 1.86 µM
- TGI [5]: 3.75 µM
- GI50 [6]: 1.73 µM
- TGI [6]: 3.76 µM
- GI50 [7]: 2.17 µM
- TGI [7]: 5.43 µM

Structure (SMILES): COc1ccccc1C(=O)N(C)c1ccc(Cl)c(C(=O)OC(C)C)c1
- TGI [1]: > 100 µM
- TGI [2]: 85.7 µM
- TGI [3]: > 100 µM
- TGI [4]: > 100 µM
- TGI [5]: > 100 µM
- TGI [7]: > 100 µM

Structure (SMILES): CC(C)(C)c1ccc(NS(=O)(=O)c2ccc3nc(NC(=O)c4cnccn4)[nH]c3c2)cc1
- GI50 [8]: 3.67 µM
- TGI [8]: 15.7 µM
- GI50 [1]: 4.64 µM
- TGI [1]: 17.5 µM
- GI50 [2]: 4.37 µM
- TGI [2]: 23.7 µM
- GI50 [3]: 2.21 µM
- TGI [3]: 7.63 µM
- GI50 [4]: 4.56 µM
- TGI [4]: 19 µM
- GI50 [6]: 1.41 µM
- TGI [6]: 4.28 µM
- GI50 [7]: 3.57 µM
- TGI [7]: 17.5 µM

Structure (SMILES): O=C(O)/C(=C\c1ccncc1)c1cccc2ccccc12
- TGI [8]: > 100 µM
- TGI [2]: > 100 µM
- TGI [4]: > 100 µM
- TGI [5]: > 100 µM
- TGI [6]: > 100 µM
- TGI [7]: > 100 µM

Structure (SMILES): CCSc1ccc(C2C(Br)C(=O)N2c2cc(OC)c(OC)c(OC)c2)cc1 (centres undefined)
- GI50 [8]: 0.214 µM
- TGI [8]: 0.527 µM
- GI50 [2]: 16.9 µM
- TGI [2]: 35.7 µM
- GI50 [4]: 0.484 µM
- TGI [4]: > 100 µM
- GI50 [5]: 0.392 µM
- TGI [5]: > 100 µM
- GI50 [7]: 1.94 µM
- TGI [7]: 30 µM

Structure (SMILES): CC(=O)[CH-]C(C)=O.CC(=O)[CH-]C(C)=O.CC[O-].CC[O-].[Ti+4]
- GI50 [8]: > 100 µM
- TGI [8]: > 100 µM
- GI50 [1]: > 100 µM
- TGI [1]: > 100 µM
- GI50 [3]: > 100 µM
- TGI [3]: > 100 µM
- GI50 [4]: > 100 µM
- TGI [4]: > 100 µM
- GI50 [5]: > 100 µM
- TGI [5]: > 100 µM
- GI50 [6]: > 100 µM
- TGI [6]: > 100 µM
- GI50 [7]: > 100 µM
- TGI [7]: > 100 µM
